These results are taken from patent publication US12612407B2, “Imidazo[2,1-f][1,2,4]triazin-4-amine derivatives as TLR7 agonist” (BEIGENE, LTD., priority 2020, dated 2026).

Each structure is given as a SMILES string.

What all share (format): cell-based
One assay concerns the target T1, human TLR 8 protein (Homo sapiens, UniProt Q9NR97).
T1 construct: expressed in transfected cells; host or cells: HEK293 (HEK-Blue hTLR8)
T1 sequence (Q9NR97 27-1041): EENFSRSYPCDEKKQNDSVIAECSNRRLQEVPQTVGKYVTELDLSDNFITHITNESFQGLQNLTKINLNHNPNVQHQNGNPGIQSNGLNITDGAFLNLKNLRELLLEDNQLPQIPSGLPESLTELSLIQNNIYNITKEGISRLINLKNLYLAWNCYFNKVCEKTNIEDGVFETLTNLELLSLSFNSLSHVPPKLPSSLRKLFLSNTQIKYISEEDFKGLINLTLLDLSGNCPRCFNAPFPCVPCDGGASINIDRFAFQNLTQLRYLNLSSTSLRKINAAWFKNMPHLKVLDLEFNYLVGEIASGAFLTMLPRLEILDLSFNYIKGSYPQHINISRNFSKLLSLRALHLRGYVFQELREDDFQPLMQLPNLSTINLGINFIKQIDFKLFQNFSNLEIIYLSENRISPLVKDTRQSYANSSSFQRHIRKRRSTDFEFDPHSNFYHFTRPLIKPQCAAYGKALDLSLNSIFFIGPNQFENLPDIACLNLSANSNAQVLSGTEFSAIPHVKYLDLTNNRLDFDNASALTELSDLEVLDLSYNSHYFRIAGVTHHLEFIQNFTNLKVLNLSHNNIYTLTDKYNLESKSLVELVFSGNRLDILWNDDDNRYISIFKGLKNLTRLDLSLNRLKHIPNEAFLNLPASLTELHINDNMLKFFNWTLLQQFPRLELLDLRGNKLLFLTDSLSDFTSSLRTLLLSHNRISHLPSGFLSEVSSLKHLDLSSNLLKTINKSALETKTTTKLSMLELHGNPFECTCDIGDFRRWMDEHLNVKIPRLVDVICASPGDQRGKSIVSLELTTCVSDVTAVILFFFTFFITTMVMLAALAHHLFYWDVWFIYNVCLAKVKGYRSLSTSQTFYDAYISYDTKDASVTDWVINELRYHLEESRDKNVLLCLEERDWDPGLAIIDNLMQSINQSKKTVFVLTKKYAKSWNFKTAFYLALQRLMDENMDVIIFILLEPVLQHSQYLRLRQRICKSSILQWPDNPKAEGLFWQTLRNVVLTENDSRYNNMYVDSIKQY
The assay can be described thus: TLR8 Stimulation determined using HEK-Blue Detection. The following applies: HEK-Blue hTLR8 cells, 16 hr, percentages of maximum activation with Resiquimod or Motolimod, Table 3. The text has this:
TLR8 Stimulation determined using HEK-Blue Detection
(§1) This assay was designed for studying the stimulation of human TLR 8 protein in HEK-Blue hTLR8 tool cell line by monitoring the activation of NF-κB. HEK-Blue hTLR8 cells were obtained by co-transfection of the hTLR8 gene and an optimized secreted embryonic alkaline phosphatase (SEAP) reporter gene into HEK293 cells. The SEAP reporter gene was placed under the control of the IFN-β minimal promoter fused to five NF-κB and AP-1-binding sites. Stimulation with a TLR 8 ligand activates NF-κB and AP-1 which induce the expression of SEAP. Levels of SEAP can be easily determined with HEK-Blue Detection, a cell culture medium that allows for real-time detection of SEAP. HEK-Blue Detection contains all the nutrients necessary for cell growth and a specific SEAP color substrate. The hydrolysis of the substrate by SEAP produces a purple/blue color that can be measured with a spectrophotometer.
When growing to 50-80% confluency, HEK-Blue hTLR7/8 cells were plated into 96-well plate (costar 3599) at a density of 40000 cells/well. Then compounds were added with serial dilutions over 10 points with a 1 nM-10 uM final concentration range in 0.1% DMSO/HEK-Blue Detection. The plates were then incubated for 16 hr at 37° C. in 5% CO2. The optical density at 620-655 nm was read on BMG PHERAstar FSX instrument. The EC50 for each compound was determined by calculating the percentages of the maximum activation identified with Resiquimod or Motolimod.

The target in assay [1] is T2, human TLR7 (Homo sapiens, UniProt Q9NYK1).
T2 construct: host or cells: HEK293 (HEK-Blue hTLR7)
T2 sequence (Q9NYK1 27-1049): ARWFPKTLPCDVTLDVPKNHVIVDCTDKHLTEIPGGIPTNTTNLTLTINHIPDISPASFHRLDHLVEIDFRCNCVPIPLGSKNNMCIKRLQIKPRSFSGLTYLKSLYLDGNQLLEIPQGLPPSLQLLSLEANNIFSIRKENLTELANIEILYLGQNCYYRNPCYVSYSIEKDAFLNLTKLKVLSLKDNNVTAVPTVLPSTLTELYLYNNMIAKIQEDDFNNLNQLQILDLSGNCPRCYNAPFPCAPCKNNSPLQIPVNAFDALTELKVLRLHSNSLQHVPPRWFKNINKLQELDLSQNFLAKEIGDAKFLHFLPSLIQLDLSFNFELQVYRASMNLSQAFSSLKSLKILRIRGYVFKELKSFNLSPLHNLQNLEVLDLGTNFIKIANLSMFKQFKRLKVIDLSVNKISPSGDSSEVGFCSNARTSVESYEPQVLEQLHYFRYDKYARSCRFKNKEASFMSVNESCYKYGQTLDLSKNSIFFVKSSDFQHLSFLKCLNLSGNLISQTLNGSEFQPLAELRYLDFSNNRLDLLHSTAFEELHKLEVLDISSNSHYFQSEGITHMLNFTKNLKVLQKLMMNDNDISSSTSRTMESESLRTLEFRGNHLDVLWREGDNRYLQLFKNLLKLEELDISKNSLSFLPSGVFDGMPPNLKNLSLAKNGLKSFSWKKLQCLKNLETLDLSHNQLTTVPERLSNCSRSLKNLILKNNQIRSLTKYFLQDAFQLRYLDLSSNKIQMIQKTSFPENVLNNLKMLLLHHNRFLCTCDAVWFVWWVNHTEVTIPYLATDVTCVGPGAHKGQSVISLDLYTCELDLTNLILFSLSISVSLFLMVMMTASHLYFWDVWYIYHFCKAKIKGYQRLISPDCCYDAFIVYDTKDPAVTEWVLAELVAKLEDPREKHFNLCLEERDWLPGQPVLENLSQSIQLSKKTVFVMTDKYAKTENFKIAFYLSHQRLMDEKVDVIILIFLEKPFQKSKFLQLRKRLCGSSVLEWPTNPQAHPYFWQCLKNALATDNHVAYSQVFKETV
The experiment in a line: HEK293-Blue hTLR7 Reporter Assay (QUANTI-BLUE, SEAP readout). The following applies: HEK-Blue-hTLR7 cells, 24 hrs treatment, Table 1, B1-B232. The procedure, abridged:
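Compound titrations were applied for 24 h at 37° C to reporter HEK293 cells (4×10^4 per well) in which human TLR7 activation drives secreted alkaline phosphatase. Supernatants reacted with Quanti-blue 10-30 min, absorbance read at 620-655 nm, and EC50 derived by sigmoidal curve fitting.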
In general terms: In a reporter assay the amount or activity of a reporter protein is the signal.

Assay [2] addresses T2, human TLR7. The assay can be described thus: TLR7 Stimulation Determined Using HEK-Blue Detection. Conditions: HEK-Blue hTLR7 cells, 16 hr, percentages of maximum activation with Resiquimod, Table 1, B233-B247.
Source text: TLR7 Stimulation Determined Using HEK-Blue Detection
as §1, with “TLR7” for “TLR 8”, “hTLR7” for “hTLR8”
When growing to 50-80% confluency, HEK-Blue hTLR7 cells were plated into 96-well plate (costar 3599) at a density of 40000 cells/well. Then compounds were added with serial dilutions over 10 points with a 0.04 nM-10 μM final concentration range in 0.1% DMSO/HEK-Blue Detection. The plates were then incubated for 16 hr at 37° C. in 5% CO2 and vortex for 30 s before measurement. The optical density at 620-655 nm was read on BMG PHERAstar FSX instrument. The EC50 for each compound was determined by calculating the percentages of the maximum activation identified with Resiquimod.

Turning to `CCCC(CCC)Nc1nc(N)c2ncc(Cc3cnc(N4CCN(C(=O)CN(C)C)CC4)c(C)c3)n2n1` [Compound B195, 1-(4-(5-((4-amino-2-(heptan-4-ylamino)imidazo[2,1-f] [1,2,4]triazin-7-yl)methyl)-3-methylpyridin-2-yl)piperazin-1-yl)-2-(dimethylamino)ethan-1-one], the EC50 on human TLR 8 protein is more than 10000 nM; on human TLR7 [1], 2.8 nM.

`CCC[C@H](C)Oc1nc(N)c2ncc(Cc3ccc(C4CCNCC4)nc3F)n2n1` [Compound B239, (S)-7-((2-fluoro-6-(piperidin-4-yl)pyridin-3-yl)methyl)-2-(pentan-2-yloxy)imidazo[2,1-f][1,2,4]triazin-4-amine]: the EC50 stood at 122 nM at human TLR 8 protein and 3.3 nM at human TLR7 [2].

In the case of `CCC[C@H](C)Nc1nc(N)c2ncc(Cc3cnc(N4CCC(CNC)CC4)c(C)c3)n2n1` (single isomer, unassigned) [Compound B213], the EC50 on human TLR 8 protein was more than 10000 nM; on human TLR7 [1], 2.6 nM.

Consider `CCC[C@H](C)Oc1nc(N)c2ncc(Cc3cnc(N4CCNCC4)c(C)c3)n2n1` [Compound B118, (S)-7-((5-methyl-6-(piperazin-1-yl)pyridin-3-yl)methyl)-2-(pentan-2-yloxy)imidazo[2,1-f][1,2,4]triazin-4-amine], for which the results for the EC50 at human TLR 8 protein and on human TLR7 [1] were 197 nM and 3.7 nM, respectively.

As to `CCCC(CCO)Oc1nc(N)c2ncc(Cc3cnc(N4CCNCC4)c(C)c3)n2n1` (stereo not shown) [Compound B165, 3-((4-amino-7-((5-methyl-6-(piperazin-1-yl)pyridin-3-yl)methyl)imidazo[2,1-f][1,2,4]triazin-2-yl)oxy)hexan-1-ol], the concentration for a half-maximal effect (EC50) on human TLR 8 protein was 150 nM; at human TLR7 [1], 7 nM.

Consider `CCC[C@H](C)Oc1nc(N)c2ncc(Cc3cnc(N4CCC(N(C)C)CC4)c(C)c3)n2n1` [Compound B122, (S)-7-((6-(4-(dimethylamino)piperidin-1-yl)-5-methylpyridin-3-yl)methyl)-2-(pentan-2-yloxy)imidazo[2,1-f][1,2,4]triazin-4-amine], for which the figures for the EC50 on human TLR 8 protein and at human TLR7 [1] were 262 nM and 2.6 nM, respectively.

For `CCC[C@H](C)Nc1nc(N)c2ncc(Cc3cnc(N4CCN(C(=O)CN(C)C)CC4)c(C)c3)n2n1` [Compound B219, (S)-1-(4-(5-((4-amino-2-(pentan-2-ylamino)imidazo[2,1-f][1,2,4]triazin-7-yl)methyl)-3-methylpyridin-2-yl)piperazin-1-yl)-2-(dimethylamino)ethan-1-one], the EC50 was more than 10000 nM on human TLR 8 protein and 2.4 nM at human TLR7 [1].

Consider `CCCC(CC)Oc1nc(N)c2ncc(Cc3cnc(N4CCNCC4)c(C)c3)n2n1` (stereo not shown) [Compound B140, 2-(hexan-3-yloxy)-7-((5-methyl-6-(piperazin-1-yl)pyridin-3-yl)methyl)imidazo[2,1-f][1,2,4]triazin-4-amine], for which the EC50 on human TLR 8 protein is 530 nM; at human TLR7 [1] it was 8.7 nM.

As to `CCCC(CCC)Nc1nc(N)c2ncc(Cc3cnc(N4CCC(CN(C)C)CC4)c(C)c3)n2n1` [Compound B190, 7-((6-(4-((dimethylamino)methyl)piperidin-1-yl)-5-methylpyridin-3-yl)methyl)-N2-(heptan-4-yl)imidazo[2,1-f][1,2,4]triazine-2,4-diamine], the EC50 is more than 10000 nM on human TLR 8 protein and 4.4 nM at human TLR7 [1].

Regarding `CCC[C@H](C)Oc1nc(N)c2ncc(Cc3cnc(N4CCC(CN(C)C)CC4)c(C)c3)n2n1` [Compound B123, (S)-7-((6-(4-((dimethylamino)methyl)piperidin-1-yl)-5-methylpyridin-3-yl)methyl)-2-(pentan-2-yloxy)imidazo[2,1-f][1,2,4]triazin-4-amine], the EC50 on human TLR 8 protein came out at 310 nM; at human TLR7 [1], 1.9 nM.

For `CCCC(C)Oc1nc(N)c2ncc(Cc3cnc(N4CCC(CNCCOC)CC4)c(C)c3)n2n1` (stereo not shown) [Compound B237, 7-((6-(4-(((2-methoxyethyl)amino)methyl)piperidin-1-yl)-5-methylpyridin-3-yl)methyl)-2-(pentan-2-yloxy)imidazo[2,1-f][1,2,4]triazin-4-amine], a half-maximal response at human TLR7 [2] (EC50) required 8.5 nM.

`CCCCOc1nc(N)c2ncc(Cc3ccc(C4CCNCC4)nc3F)n2n1` [Compound B21, 2-butoxy-7-((2-fluoro-6-(piperidin-4-yl)pyridin-3-yl)methyl)imidazo[2,1-f][1,2,4]triazin-4-amine]: the EC50 was found to be 250 nM at human TLR 8 protein and 115 nM at human TLR7 [1].

Regarding `CCC[C@H](C)Nc1nc(N)c2ncc(Cc3cnc(N4CCC(CN(C)C)CC4)c(C)c3)n2n1` (single isomer, unassigned) [Compound B147], the EC50 on human TLR 8 protein is more than 10000 nM; on human TLR7 [1], 2.2 nM.

What is called EC50 is the concentration at which the effect is half-maximal. Low values mean higher potency in that assay, high ones lower potency in that assay.
